This passage reports inhibition results from patent US9187471B2, “Pyrido [4,3-b] indole and pyrido [3,4-b] indole derivatives and methods of use” (Medivation Technologies, Inc., priority 2010, dated 2015).

The target of assay [1] is T1, human recombinant dopamine D2L receptor (Homo sapiens, UniProt P14416).
T1 construct: expressed in transfected cells; host or cells: CHO
The assay is described as follows: Dopamine D2L radioligand binding ([3H]Spiperone). Particulars: read-out: Dopamine D2L (1 μM), percent inhibition of specific binding; compound at 1 μM; 0.16 nM [3H]Spiperone. The protocol: Non-specific binding was estimated in the presence of 10 μM Haloperidol. Receptor proteins were filtered and washed, the filters were then counted to determine [^3H]Spiperone specifically bound.

Assay [2] deals with T2, human recombinant serotonin (5-Hydroxytryptamine) 5-HT2C receptor (Homo sapiens, UniProt P28335).
T2 construct: expressed in transfected cells; host or cells: CHO-K1
T2 sequence (P28335 33-458): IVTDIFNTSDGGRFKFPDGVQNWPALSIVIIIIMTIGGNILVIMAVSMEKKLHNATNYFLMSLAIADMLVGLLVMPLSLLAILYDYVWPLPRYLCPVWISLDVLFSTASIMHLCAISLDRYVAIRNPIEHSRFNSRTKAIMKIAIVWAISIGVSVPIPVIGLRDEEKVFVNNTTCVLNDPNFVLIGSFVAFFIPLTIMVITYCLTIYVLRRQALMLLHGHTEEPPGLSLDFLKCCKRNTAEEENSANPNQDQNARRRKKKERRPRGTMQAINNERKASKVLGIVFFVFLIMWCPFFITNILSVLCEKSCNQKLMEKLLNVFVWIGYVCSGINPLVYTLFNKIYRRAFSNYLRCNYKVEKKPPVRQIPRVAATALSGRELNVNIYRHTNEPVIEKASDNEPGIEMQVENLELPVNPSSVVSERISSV
The assay is described as follows: Serotonin 5-HT2C radioligand binding ([3H]Mesulergine). Particulars: compound at 0.1 μM; read-out: Inhibition of ligand binding, Serotonin 5-HT2C (percent inhibition of specific binding). The protocol:
Compounds of the invention were incubated with 1 nM [^3H]Mesulergine for 60 min at 25° C. Non-specific binding was estimated in the presence of 1 μM Mianserin. Receptor proteins were filtered and washed, the filters were then counted to determine [^3H]Mesulergine specifically bound.

Assay [3] concerns the target T3, human recombinant histamine H1 receptor (Homo sapiens, UniProt P35367).
T3 construct: expressed in transfected cells; host or cells: CHO-K1
The assay is described as follows: Histamine H1 radioligand binding ([3H]Pyrilamine). Particulars: read-out: Histamine H1 Binding (1 μM), percent inhibition of specific binding; compound at 1 μM; 1.2 nM [3H]Pyrilamine. The protocol:
To evaluate in radioligand binding assays the activity of compounds of the invention, human recombinant histamine H1 receptor expressed in Chinese hamster ovary (CHO) K1 cells (De Backer, M. et al, Biochem. Biophys. Res. Comm. 197(3):1601, 1993) in a modified Tris-HCl buffer (50 mM Tris-HCl, pH 7.4, 2 mM MgCl2, 100 mM NaCl, 250 mM Sucrose) was used. […] Non-specific binding was estimated in the presence of 1 μM Pyrilamine. Receptor proteins were filtered and washed, the filters were then counted to determine [^3H]Pyrilamine specifically bound. […] Biochemical assay results are presented as the percent inhibition of specific binding in Table 2.

Assay [4] addresses T4, human recombinant serotonin (5-Hydroxytryptamine) 5-HT6 receptor (Homo sapiens, UniProt P50406).
T4 construct: expressed in transfected cells; host or cells: HeLa
The assay is described as follows: Serotonin 5-HT6 radioligand binding ([3H]LSD). Particulars: compound at 0.1 μM; read-out: Inhibition of ligand binding, Serotonin 5-HT6 (percent inhibition of specific binding). The text has this:
Receptor proteins were filtered and washed, the filters were then counted to determine [3H]LSD specifically bound.

For assay [5], the target named is T5, human recombinant serotonin (5-Hydroxytryptamine) 5-HT7 receptor (Homo sapiens, UniProt P34969).
T5 construct: expressed in transfected cells; host or cells: CHO
T5 sequence (P34969 whole entry): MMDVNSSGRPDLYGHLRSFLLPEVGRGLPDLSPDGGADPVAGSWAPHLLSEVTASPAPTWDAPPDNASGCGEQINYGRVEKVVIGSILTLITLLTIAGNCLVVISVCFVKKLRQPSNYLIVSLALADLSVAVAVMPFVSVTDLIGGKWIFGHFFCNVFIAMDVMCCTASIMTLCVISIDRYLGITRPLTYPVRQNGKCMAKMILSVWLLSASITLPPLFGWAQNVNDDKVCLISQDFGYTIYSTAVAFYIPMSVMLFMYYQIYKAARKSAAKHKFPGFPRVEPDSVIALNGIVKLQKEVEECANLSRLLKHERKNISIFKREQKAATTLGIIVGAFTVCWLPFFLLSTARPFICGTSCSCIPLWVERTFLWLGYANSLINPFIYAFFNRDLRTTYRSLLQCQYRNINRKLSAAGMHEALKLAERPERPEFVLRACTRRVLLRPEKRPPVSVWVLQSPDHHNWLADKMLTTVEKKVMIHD
As to the kind of experiment: Serotonin 5-HT7 radioligand binding ([3H]LSD). To be noted: compound at 0.1 μM; read-out: Inhibition of ligand binding, Serotonin 5-HT7 (percent inhibition of specific binding). The protocol:
Lysergic acid diethylamide (LSD) for 120 min. at 25° C. […] Receptor proteins were filtered and washed, the filters were then counted to determine [^3H]LSD specifically bound.

In assay [6] the target is T6, human recombinant serotonin (5-Hydroxytryptamine) 5-HT2A receptor (Homo sapiens, UniProt P28223).
T6 construct: expressed in transfected cells; host or cells: CHO-K1
T6 sequence (P28223 whole entry): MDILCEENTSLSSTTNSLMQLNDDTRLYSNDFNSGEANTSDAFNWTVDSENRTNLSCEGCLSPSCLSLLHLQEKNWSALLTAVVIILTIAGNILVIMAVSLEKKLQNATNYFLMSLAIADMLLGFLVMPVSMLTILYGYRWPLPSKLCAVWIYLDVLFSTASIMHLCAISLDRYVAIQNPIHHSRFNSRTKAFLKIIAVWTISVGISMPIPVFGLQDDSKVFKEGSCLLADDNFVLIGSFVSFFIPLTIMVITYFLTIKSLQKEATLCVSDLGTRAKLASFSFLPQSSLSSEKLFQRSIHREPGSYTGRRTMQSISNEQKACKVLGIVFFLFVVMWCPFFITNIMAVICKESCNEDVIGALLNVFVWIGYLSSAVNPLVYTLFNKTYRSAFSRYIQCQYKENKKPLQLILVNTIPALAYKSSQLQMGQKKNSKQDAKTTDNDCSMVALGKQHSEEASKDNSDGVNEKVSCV
The assay is described as follows: Serotonin 5-HT2A radioligand binding ([3H]Ketanserin). Particulars: compound at 0.1 μM; read-out: Inhibition of ligand binding, Serotonin 5-HT2A (percent inhibition of specific binding). The procedure: Compounds of the invention were incubated with 0.5 nM [^3H]Ketanserin for 60 min at 25° C. Non-specific binding was estimated in the presence of 1 μM Mianserin. Receptor proteins were filtered and washed, the filters were then counted to determine [^3H]Ketanserin specifically bound.

What is called inhibition is the drop in the measured response relative to a control, in per cent.

T1 sequence (P14416 whole entry): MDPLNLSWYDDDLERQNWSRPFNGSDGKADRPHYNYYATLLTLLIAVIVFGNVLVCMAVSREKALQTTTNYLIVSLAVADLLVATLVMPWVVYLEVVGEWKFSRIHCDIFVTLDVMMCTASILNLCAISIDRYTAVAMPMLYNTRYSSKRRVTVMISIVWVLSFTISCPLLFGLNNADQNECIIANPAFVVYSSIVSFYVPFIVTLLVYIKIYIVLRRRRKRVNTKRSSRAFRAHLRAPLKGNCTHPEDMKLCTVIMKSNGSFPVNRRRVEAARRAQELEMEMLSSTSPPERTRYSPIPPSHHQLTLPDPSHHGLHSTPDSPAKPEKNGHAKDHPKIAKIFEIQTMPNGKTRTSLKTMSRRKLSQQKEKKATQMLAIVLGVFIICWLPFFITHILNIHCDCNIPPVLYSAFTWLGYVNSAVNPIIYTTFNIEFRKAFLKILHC
T4 sequence (P50406 whole entry): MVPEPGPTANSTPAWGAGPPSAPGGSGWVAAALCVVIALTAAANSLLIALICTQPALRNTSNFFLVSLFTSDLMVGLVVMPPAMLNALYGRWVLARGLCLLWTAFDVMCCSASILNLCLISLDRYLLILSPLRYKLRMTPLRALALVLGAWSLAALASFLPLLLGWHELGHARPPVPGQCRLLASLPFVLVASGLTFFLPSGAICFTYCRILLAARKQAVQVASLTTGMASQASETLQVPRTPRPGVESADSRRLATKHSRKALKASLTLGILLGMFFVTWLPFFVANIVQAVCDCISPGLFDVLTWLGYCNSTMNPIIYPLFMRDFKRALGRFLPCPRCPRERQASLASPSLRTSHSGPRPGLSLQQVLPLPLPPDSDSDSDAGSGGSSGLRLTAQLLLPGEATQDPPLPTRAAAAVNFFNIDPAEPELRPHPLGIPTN
T3 sequence (P35367 whole entry): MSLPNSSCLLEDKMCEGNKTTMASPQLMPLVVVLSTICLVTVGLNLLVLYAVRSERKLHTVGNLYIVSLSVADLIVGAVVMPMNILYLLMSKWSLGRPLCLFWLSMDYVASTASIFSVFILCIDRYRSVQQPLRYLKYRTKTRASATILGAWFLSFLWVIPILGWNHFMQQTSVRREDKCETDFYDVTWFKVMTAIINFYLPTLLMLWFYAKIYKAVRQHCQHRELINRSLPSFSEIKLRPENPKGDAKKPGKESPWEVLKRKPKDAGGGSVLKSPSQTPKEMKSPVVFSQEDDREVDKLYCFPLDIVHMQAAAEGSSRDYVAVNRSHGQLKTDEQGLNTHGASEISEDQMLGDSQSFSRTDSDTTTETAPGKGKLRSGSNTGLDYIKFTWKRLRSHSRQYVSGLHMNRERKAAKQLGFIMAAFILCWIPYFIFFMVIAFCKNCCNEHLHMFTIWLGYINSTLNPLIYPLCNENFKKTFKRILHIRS

Regarding `CN1CCc2c(c3cc(Cl)ccc3n2-c2cscc2-c2ccccc2)C1` [Compound 26], the inhibition at 1 µM in assay [1] was 47%; in assay [3], 91%. For the same molecule, the inhibition at 0.1 µM in assay [2] is 96%; in assay [4], 61%; in assay [5], 95%; in assay [6] it was 86%.
As for `COc1ccc(-n2c3c(c4cc(C)ccc42)CN(C)CC3)cn1` [Compound 17, 5-(6-Methoxy-pyridin-3-yl)-2,8-dimethyl-2,3,4,5-tetrahydro-1H-pyrido[4,3-b]indole], the inhibition at 1 µM worked out at 10% in assay [1] and 23% in assay [3]. The inhibition at 0.1 µM is 44% in assay [2], 17% in assay [4], 1% in assay [5] and 62% in assay [6].
As for `Cc1ccc2c(c1)c1c(n2-c2ccccc2N(C)C)CCN(C)C1` [Compound 6, [2-(2,8-dimethyl-1,2,3,4-tetrahydro-pyrido[4,3-b]indol-5-yl)-phenyl]-dimethyl-amine], the inhibition at 1 µM is 58% in assay [1] and 99% in assay [3]. The inhibition at 0.1 µM stood at 90% in assay [2], 28% in assay [4], 49% in assay [5] and 91% in assay [6].
Turning to `CN1CCc2c(c3cc(Cl)ccc3n2-c2cscc2-c2ccncc2)C1` [Compound 28], the figures for the inhibition at 1 µM in assay [1] and in assay [3] were 20% and 46%, respectively. For the same molecule, the inhibition at 0.1 µM worked out at 76% in assay [2], 45% in assay [4], 95% in assay [5] and 68% in assay [6].
On to `Cc1ccc2c(c1)c1c(n2-c2ccccc2-c2ccccc2)CCN(C)C1` [Compound 8, 5-biphenyl-2-yl-2,8-dimethyl-2,3,4,5-tetrahydro-1H-pyrido[4,3-b]indole], for which the inhibition at 1 µM in assay [1] came to 30%; in assay [3], 92%. Further, the inhibition at 0.1 µM in assay [2] was 97%; in assay [4], 52%; in assay [5], 65%; in assay [6], 99%.
Consider `CN1CCc2c(c3cc(Cl)ccc3n2-c2cscc2-c2ccc(F)cc2)C1` [Compound 25], for which the inhibition at 1 µM came to 39% in assay [1] and 80% in assay [3]. Moreover, the inhibition at 0.1 µM stood at 91% in assay [2], 56% in assay [4], 94% in assay [5] and 81% in assay [6].
As for `Cc1ccc2c(c1)c1c(n2-c2cscc2-c2ccc(F)cc2)CCN(C)C1` [Compound 23], the inhibition at 1 µM came out at 44% in assay [1] and 72% in assay [3]. The inhibition at 0.1 µM in assay [2] was 90%; in assay [4] it was 45%; in assay [5], 98%; in assay [6] it was 83%.
For `Cc1ccc2c(c1)c1c(n2-c2cscn2)CCN(C)C1` [Compound 19, 2,8-dimethyl-5-thiazol-4-yl-2,3,4,5-tetrahydro-1H-pyrido[4,3-b]indole], the inhibition at 1 µM in assay [1] amounted to 14%; in assay [3], 59%. The inhibition at 0.1 µM is 71% in assay [2], 15% in assay [4], 51% in assay [5] and 64% in assay [6].
In the case of `Cc1ccc2c(c1)c1c(n2-c2ccccc2)CCN(C)C1` [Compound 1, 2,8-dimethyl-5-phenyl-2,3,4,5-tetrahydro-1H-pyrido[4,3-b]indole], the inhibition at 1 µM amounted to 67% in assay [1] and 70% in assay [3]. The inhibition at 0.1 µM is 88% in assay [2], 63% in assay [4], 21% in assay [5] and 100% in assay [6].
Take `Cc1ccc2c(c1)c1c(n2-c2ccccc2-c2cnccc2C)CCN(C)C1` [Compound No. 159, 2,8-dimethyl-5-(2-(4-methylpyridin-3-yl)phenyl)-2,3,4,5-tetrahydro-1H-pyrido[4,3-b]indole]: the inhibition at 0.1 µM in assay [4] came out at 0%; in assay [5], 19%; in assay [6], 48%.
Turning to `Cc1ccc2c(c1)c1c(n2-c2cscc2-c2ccccc2)CCN(C)C1` [Compound 21, 2,8-dimethyl-5-(4-phenyl-thiophen-3-yl)-2,3,4,5-tetrahydro-1H-pyrido[4,3-b]indole], the inhibition at 1 µM in assay [1] was 54%; in assay [3] it was 86%. For the same molecule, the inhibition at 0.1 µM came to 96% in assay [2], 62% in assay [4], 99% in assay [5] and 90% in assay [6].
Take `Cc1ccc2c(c1)c1c(n2-c2ccc3ncccc3c2)CCN(C)C1` [Compound 24, 2,8-dimethyl-5-quinolin-6-yl-2,3,4,5-tetrahydro-1H-pyrido[4,3-b]indole]: the inhibition at 1 µM in assay [1] is 45%; in assay [3], 10%. The inhibition at 0.1 µM in assay [2] came to 66%; in assay [4], 12%; in assay [5], 25%; in assay [6], 72%.
As for `CN1CCc2c(c3cc(Cl)ccc3n2-c2ccsc2)C1` [Compound 29, 8-chloro-2-methyl-5-thiophen-3-yl-2,3,4,5-tetrahydro-1H-pyrido[4,3-b]indole], the inhibition at 1 µM in assay [1] turned out to be 63%; in assay [3], 90%. Further, the inhibition at 0.1 µM in assay [2] amounted to 98%; in assay [4], 101%; in assay [5], 63%; in assay [6], 101%.
In the case of `Cc1ccc2c(c1)c1c(n2-c2ccc3ccccc3c2)CCN(C)C1` [Compound 12, 2,8-dimethyl-5-naphthalen-2-yl-2,3,4,5-tetrahydro-1H-pyrido[4,3-b]indole], the inhibition at 1 µM in assay [1] was 84%; in assay [3], 24%. For the same molecule, the inhibition at 0.1 µM in assay [2] turned out to be 93%; in assay [4], 63%; in assay [5], 3%; in assay [6], 94%.
With `Cc1ccc2c(c1)c1c(n2-c2ncccc2-c2ccncc2)CCN(C)C1` [Compound No. 161, 5-(3,4′-bipyridin-2-yl)-2,8-dimethyl-2,3,4,5-tetrahydro-1H-pyrido[4,3-b]indole], the inhibition at 0.1 µM in assay [4] turned out to be 4%; in assay [5] it was 18%; in assay [6], 17%.
`Cc1ccc2c(c1)c1c(n2-c2ccccc2-c2ccc(S(N)(=O)=O)cc2)CCN(C)C1` [Compound No. 163, 2′-(2,8-dimethyl-3,4-dihydro-1H-pyrido[4,3-b]indol-5(2H)-yl)biphenyl-4-sulfonamide]: the inhibition at 0.1 µM came out at 13% in assay [4], 36% in assay [5] and 73% in assay [6].
The like results for `Cc1ccc2c(c1)c1c(n2-c2cnc(C)c3ccccc23)CCN(C)C1` [Compound No. 164, 2,8-dimethyl-5-(1-methylisoquinolin-4-yl)-2,3,4,5-tetrahydro-1H-pyrido[4,3-b]indole] were, in that order, 1%, 4% and 23%.
`Cc1ccc2c(c1)c1c(n2-c2ccccc2-c2ccc(S(C)(=O)=O)cc2)CCN(C)C1` [Compound No. 160, 2,8-dimethyl-5-(4′-(methylsulfonyl)biphenyl-2-yl)-2,3,4,5-tetrahydro-1H-pyrido[4,3-b]indole]: the inhibition at 0.1 µM in assay [4] was found to be 18%; in assay [5] it was 17%; in assay [6] it was 36%.
